Each structure is given as a SMILES string.

The first experiment has as its target TAAR1 (Mus musculus, UniProt Q923Y8). Put plainly: TAAR1 radioligand binding, membranes of stably transfected HEK293 cells (mouse).
Settings: not given
The gist of the method: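 Competition binding on membranes from HEK293 cells stably expressing the TAAR1 species ortholog, in HEPES-NaOH pH 7.0 with 10 mM MgCl2 and 2 mM CaCl2, 30 min at 4° C with [3H]-rac-2-(1,2,3,4-tetrahydro-1-naphthyl)-2-imidazoline. Competitors 10 pM–30 μM, duplicates; non-specific binding with 10 μM unlabelled ligand; filtration and scintillation counting.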
`NC1=NC(c2ccc(F)c(F)c2F)CO1` (racemic) [Example 17, (RS)-4-(2,3,4-Trifluoro-phenyl)-4,5-dihydro-oxazol-2-ylamine] yielded a Ki of 0.0057 µM.

Compound `NC1=NC(c2ccc3ccccc3c2)CO1` (racemic) [Example 33, (RS)-4-Naphthalen-2-yl-4,5-dihydro-oxazol-2-ylamine] registered a Ki of 0.0007 µM.

In the case of `NC1=N[C@@H](c2ccc(-c3ccccc3)cc2)CO1` [Example 21 (S), (S)-4-Biphenyl-4-yl-4,5-dihydro-oxazol-2-ylamine], the Ki is 0.0008 µM.

Regarding `CC1(c2cc(F)c(Cl)cc2F)COC(N)=N1` (racemic) [Example 271, (RS)-4-Methyl-4-(4-chloro-2,5-difluoro-phenyl)-4,5-dihydro-oxazol-2-ylamine], the Ki came to 0.0013 µM.

The compound `NC1=N[C@@H](c2ccc(Cl)c(F)c2)CO1` [Example 174, (S)-4-(4-Chloro-3-fluoro-phenyl)-4,5-dihydro-oxazol-2-ylamine] had a Ki of 0.0006 µM.

As to `Cc1ccccc1[C@H]1COC(N)=N1` [39a (S), (S)-4-o-Tolyl-4,5-dihydro-oxazol-2-ylamine], the Ki came to 0.0025 µM.

On to `NC1=NC(c2ccc(Br)c(F)c2)CO1` (racemic) [Example 252, (RS)-4-(4-Bromo-3-fluoro-phenyl)-4,5-dihydro-oxazol-2-ylamine], for which the Ki is 0.0008 µM.

In turn, `NC1=NC(c2cc(Cl)ccc2Cl)CO1` (racemic) [Example 260, (RS)-4-(2,5-Dichloro-phenyl)-4,5-dihydro-oxazol-2-ylamine] yielded a Ki of 0.0013 µM.

Regarding `CCc1cc(Cl)ccc1C1COC(N)=N1` (racemic) [Example 344, (RS)-4-(4-Chloro-2-ethyl-phenyl)-4,5-dihydro-oxazol-2-ylamine], the Ki was 0.0025 µM.

Turning to `NC1=NC(c2ccc(-c3ccc(Cl)cc3)cc2)CO1` (racemic) [Example 31, (RS)-4-(4′-Chloro-biphenyl-4-yl)-4,5-dihydro-oxazol-2-ylamine], the Ki came out at 0.0022 µM.

Staying with this experiment, now noted: mouse/rat; cell not marked 'rat'; radioligand [3H]-rac-2-(1,2,3,4-tetrahydro-1-naphthyl)-2-imidazoline, 4° C.; read-out: Ki (μM) mouse/rat.
On to `NC1=N[C@@H](c2ccc(Br)cc2F)CO1` [Example 367, (+)-(S)-4-(4-Bromo-2-fluoro-phenyl)-4,5-dihydro-oxazol-2-ylamine], for which the Ki is 0.001 µM.

`C[C@]1(CCc2ccc(F)cc2)COC(N)=N1` [Example 255, (S)-4-[2-(4-Fluoro-phenyl)-ethyl]-4-methyl-4,5-dihydro-oxazol-2-ylamine]: the Ki was 0.0074 µM.

`CC(C[C@H]1COC(N)=N1)c1cc(F)cc(F)c1` (stereo partly drawn) [Example 202, (S)-4-[2-(3,5-Difluoro-phenyl)-propyl]-4,5-dihydro-oxazol-2-ylamine]: the Ki turned out to be 0.0017 µM.

For the compound `CC[C@@H](C[C@H]1COC(N)=N1)c1ccccc1` [Example 292, (S)-4-((S)-2-Phenyl-butyl)-4,5-dihydro-oxazol-2-ylamine], the Ki worked out at 0.0035 µM.

On to `NC1=N[C@@H](CCc2c(F)cccc2Cl)CO1` [Example 303, (S)-4-[2-(2-Chloro-6-fluoro-phenyl)-ethyl]-4,5-dihydro-oxazol-2-ylamine], for which the Ki was determined as 0.0011 µM.

As to `NC1=N[C@@H](CCc2cc(F)cc(F)c2)CO1` [Example 113, (S)-4-[2-(3,5-Difluoro-phenyl)-ethyl]-4,5-dihydro-oxazol-2-ylamine], the Ki worked out at 0.0016 µM.

Consider `NC1=N[C@@H](c2cc(F)c(F)cc2F)CO1` [Example 107, (S)-4-(2,4,5-Trifluoro-phenyl)-4,5-dihydro-oxazol-2-ylamine], for which the Ki turned out to be 0.004 µM.

On to `Cc1ccc(CC[C@H]2COC(N)=N2)cc1` [Example 116, (S)-4-(2-p-Tolyl-ethyl)-4,5-dihydro-oxazol-2-ylamine], for which the Ki was found to be 0.0012 µM.

`C[C@]1(c2ccccc2Cl)COC(N)=N1` [Example 180, (S)-4-(2-Chloro-phenyl)-4-methyl-4,5-dihydro-oxazol-2-ylamine]: the Ki amounted to 0.0088 µM.

In the case of `C[C@]1(c2cccc(C(F)(F)F)c2)COC(N)=N1` [Example 219, (S)-4-Methyl-4-(3-trifluoromethyl-phenyl)-4,5-dihydro-oxazol-2-ylamine], the Ki worked out at 0.0009 µM.

In the case of `NC1=N[C@@H](CSc2ccc(Cl)cc2)CO1` [Example 370, (R)-4-(4-Chloro-phenylsulfanylmethyl)-4,5-dihydro-oxazol-2-ylamine], the Ki was found to be 0.0037 µM.

In the case of `COc1ccc([C@H]2COC(N)=N2)c(C(F)(F)F)c1` [Example 240, (+)-(S)-4-(4-Methoxy-2-trifluoromethyl-phenyl)-4,5-dihydro-oxazol-2-ylamine], the Ki was found to be 0.0032 µM.

As to `Cc1ccc([C@H]2COC(N)=N2)cc1Cl` [Example 374, (+)-(S)-4-(3-Chloro-4-methyl-phenyl)-4,5-dihydro-oxazol-2-ylamine], the Ki was determined as 0.0006 µM.

Regarding `NC1=N[C@@H](CCc2ccc(F)c(C(F)(F)F)c2)CO1` [Example 133, (S)-4-[2-(4-Fluoro-3-trifluoromethyl-phenyl)-ethyl]-4,5-dihydro-oxazol-2-ylamine], the Ki came out at 0.0022 µM.

Turning to `CCC(C[C@H]1COC(N)=N1)c1cccc(Cl)c1F` (stereo partly drawn) [Example 355, (S)-4-[2-(3-Chloro-2-fluoro-phenyl)-butyl]-4,5-dihydro-oxazol-2-ylamine], the Ki was determined as 0.0043 µM.

For the compound `NC1=N[C@@H](CCc2ccc(OC(F)(F)F)c(F)c2)CO1` [Example 145, (S)-4-[2-(3-Fluoro-4-trifluoromethoxy-phenyl)-ethyl]-4,5-dihydro-oxazol-2-ylamine], the Ki stood at 0.0026 µM.

`NC1=N[C@@H](CCc2ccc(Cl)cc2F)CO1` [Example 132, (S)-4-[2-(4-Chloro-2-fluoro-phenyl)-ethyl]-4,5-dihydro-oxazol-2-ylamine]: the Ki was 0.0007 µM.

As to `C[C@]1(c2cc(F)cc(Cl)c2)COC(N)=N1` [Example 266, (S)-4-(3-Chloro-5-fluoro-phenyl)-4-methyl-4,5-dihydro-oxazol-2-ylamine], the Ki is 0.0016 µM.

With `NC1=N[C@@H](c2cc(Cl)cc(Cl)c2)CO1` [Example 201, (+)-(S)-4-(3,5-Dichloro-phenyl)-4,5-dihydro-oxazol-2-ylamine], the Ki came out at 0.0002 µM.

As to `NC1=N[C@@H](CCc2cc(Cl)ccc2Cl)CO1` [Example 333, (S)-4-[2-(2,5-Dichloro-phenyl)-ethyl]-4,5-dihydro-oxazol-2-ylamine], the Ki is 0.0021 µM.

With `C[C@]1(CCc2ccc(Cl)cc2)COC(N)=N1` [Example 244, (S)-4-[2-(4-Chloro-phenyl)-ethyl]-4-methyl-4,5-dihydro-oxazol-2-ylamine], the Ki was determined as 0.0057 µM.

With `NC1=N[C@@H](c2cccc(Cl)c2F)CO1` [Example 109, (S)-4-(3-Chloro-2-fluoro-phenyl)-4,5-dihydro-oxazol-2-ylamine], the Ki was found to be 0.0014 µM.

`NC1=N[C@@H](CC2(c3ccc(Cl)cc3)CC2)CO1` [Example 257, (S)-4-[1-(4-Chloro-phenyl)-cyclopropylmethyl]-4,5-dihydro-oxazol-2-ylamine]: the Ki stood at 0.0074 µM.

With `NC1=N[C@@H](c2cc(Cl)c(Cl)cc2C(F)(F)F)CO1` [Example 242, (+)-(S)-4-(4,5-Dichloro-2-trifluoromethyl-phenyl)-4,5-dihydro-oxazol-2-ylamine], the Ki was determined as 0.0072 µM.

For `C[C@]1(c2ccc(Cl)cc2)COC(N)=N1` [Example 136, (S)-4-(4-Chloro-phenyl)-4-methyl-4,5-dihydro-oxazol-2-ylamine], the Ki was 0.0038 µM.

The values above are taken from patent publication US8604061B2, “2-aminooxazolines as TAAR1 ligands” (Hoffmann-La Roche Inc., priority 2007, dated 2013).
